Data published in the NIST ThermoML archive (doi:10.1021/acs.jced.7b00221).

Test: xn = mol fraction of the nth substance listed
Conditions: 100 kPa, Liquid; for viscosity: Cone and plate viscometry; for mass density: Vibrating tube method

CCCCCCn1cc[n+](C)c1C.O=S(=O)([N-]S(=O)(=O)C(F)(F)F)C(F)(F)F + CCCCCCCCCCCCCC[P+](CCCCCC)(CCCCCC)CCCCCC.O=S(=O)([N-]S(=O)(=O)C(F)(F)F)C(F)(F)F
viscosity [mPa·s]
Conditions	278.15 K	283.15 K	288.15 K	293.15 K	298.15 K	303.15 K	308.15 K	313.15 K	318.15 K	323.15 K
x2 = 0.2	707	483	336	242	179	136	106	84	68	55
x2 = 0.4	932	634	442	317	234	177	137	107	86	71
x2 = 0.596	1000	683	477	342	252	190	146	115	92	75
x2 = 0.749	1015	698	490	353	261	196	151	119	95	77
x2 = 0.898	1130	786	555	400	297	224	173	135	108	80

CC[P+](CC)(CC)COCCOC.O=S(=O)([N-]S(=O)(=O)C(F)(F)F)C(F)(F)F + CCCCCCCCCC[P+](CC)(CC)CC.O=[N+]([O-])c1cn[n-]c1
x2 = 0
Conditions	viscosity [mPa·s]
278.15 K	84
283.15 K	65
288.15 K	51

CCCCCC[n+]1ccn(C)c1.O=S(=O)([N-]S(=O)(=O)C(F)(F)F)C(F)(F)F + CCCCCCCC[P+](CC)(CC)CC.O=[N+]([O-])c1cn[n-]c1
x2 = 0
Conditions	mass density [kg/m3]
283.15 K	1385.6
288.15 K	1381
293.15 K	1376.5
295.15 K	1374.6
298.15 K	1371.9
303.15 K	1367.3
308.15 K	1362.8
313.15 K	1358.3
318.15 K	1353.7
323.15 K	1349.2
328.15 K	1344.7
333.15 K	1340.3
338.15 K	1335.8
343.15 K	1331.4
348.15 K	1326.9
353.15 K	1322.5

CCCCCCn1cc[n+](C)c1C.O=S(=O)([N-]S(=O)(=O)C(F)(F)F)C(F)(F)F + CCCCCCCC[P+](CC)(CC)CC.O=[N+]([O-])c1cn[n-]c1
x2 = 0
Conditions	mass density [kg/m3]
283.15 K	1373
288.15 K	1368.4
293.15 K	1363.9
295.15 K	1362.1
298.15 K	1359.5
303.15 K	1355.1
308.15 K	1350.8
313.15 K	1346.4
318.15 K	1342
323.15 K	1337.6
328.15 K	1333.2
333.15 K	1328.9
338.15 K	1324.5
343.15 K	1320.2
348.15 K	1315.8
353.15 K	1311.5

CC[P+](CC)(CC)COCCOC.O=S(=O)([N-]S(=O)(=O)C(F)(F)F)C(F)(F)F + CCCCCCC[P+](CC)(CC)CC.O=[N+]([O-])c1cn[n-]c1
x2 = 0
Conditions	viscosity [mPa·s]
278.15 K	84
283.15 K	65
288.15 K	51

CCCCCCCCCCCCCC[P+](CCCCCC)(CCCCCC)CCCCCC.O=S(=O)([N-]S(=O)(=O)C(F)(F)F)C(F)(F)F + CCCCCC[n+]1ccn(C)c1.O=S(=O)([N-]S(=O)(=O)C(F)(F)F)C(F)(F)F
viscosity [mPa·s]
Conditions	278.15 K	283.15 K	288.15 K	293.15 K	298.15 K	303.15 K	308.15 K	313.15 K	318.15 K	323.15 K
x1 = 0.2	390	280	205	153	118	92	74	60	–	–
x1 = 0.398	652	459	329	242	183	141	111	89	72	60
x1 = 0.596	873	611	434	316	236	180	140	111	90	73
x1 = 0.748	1019	706	500	362	270	204	158	124	100	81
x1 = 0.903	1114	774	547	396	293	221	171	134	107	86

CCCC[n+]1cccn1C.O=S(=O)([N-]S(=O)(=O)C(F)(F)F)C(F)(F)F [1-butyl-2-methylpyrazolium bis(trifluoromethylsulfonyl)imide] + CCCCCCSC(N(C)C)=[N+](C)C.O=S(=O)([N-]S(=O)(=O)C(F)(F)F)C(F)(F)F
mass density [kg/m3]
Conditions	x2 = 0.251	x2 = 0.502	x2 = 0.748
283.15 K	1431.2	1400.4	1375.8
288.15 K	1426.6	1395.7	1371.4
293.15 K	1421.9	1391.4	1366.9
295.15 K	1420.1	1389.9	1365.1
298.15 K	1417.3	1387.4	1362.4
303.15 K	1412.7	1382	1357.9
308.15 K	1408.1	1377.6	1353.5
313.15 K	1403.5	1373.2	1349
318.15 K	1398.9	1368.8	1344.6
323.15 K	1394.3	1364.7	1340.2
328.15 K	1389.7	1360.4	1335.8
333.15 K	1385.2	1356	1331.4
338.15 K	1380.6	1351.7	1327
343.15 K	1376.1	1347.3	1322.6
348.15 K	1371.6	1342.8	1318.3
353.15 K	1367.1	1338.4	1313.9

CCCCCCn1cc[n+](C)c1C.O=[N+]([O-])c1cn[n-]c1 [1-hexyl-2,3-dimethylimidazolium 4-nitropyrazolide] + CCCCCCCC[P+](CC)(CC)CC.O=S(=O)([N-]S(=O)(=O)C(F)(F)F)C(F)(F)F
viscosity [mPa·s]
Conditions	278.15 K	283.15 K	288.15 K	293.15 K	298.15 K	303.15 K	308.15 K	313.15 K	318.15 K	323.15 K
x1 = 0.101	401	284	204	151	115	90	72	57	–	–
x1 = 0.299	620	421	293	211	156	120	93	74	60	–
x1 = 0.499	992	636	423	292	209	154	118	91	72	59
x1 = 0.701	2252	1345	836	543	369	259	188	140	107	84
x1 = 0.899	6554	3416	1886	1108	689	450	307	216	157	119

CCCCCCn1cc[n+](C)c1.O=[N+]([O-])c1cn[n-]c1 [1-hexyl-3-methylimidazolium 4-nitropyrazolide] + CCCCCCCC[P+](CC)(CC)CC.O=S(=O)([N-]S(=O)(=O)C(F)(F)F)C(F)(F)F
viscosity [mPa·s]
Conditions	278.15 K	283.15 K	288.15 K	293.15 K	298.15 K	303.15 K	308.15 K	313.15 K	318.15 K	323.15 K
x1 = 0.1	402	284	205	152	116	90	72	58	–	–
x1 = 0.299	470	325	230	168	127	98	77	62	51	–
x1 = 0.499	639	428	294	209	154	116	90	71	57	–
x1 = 0.701	1045	660	432	295	209	154	116	90	71	57
x1 = 0.9	2181	1262	765	488	326	227	164	122	93	74

CCCCCCCCCC[P+](CC)(CC)CC.O=[N+]([O-])c1cn[n-]c1 [decyltriethylphosphonium 4-nitropyrazolide] + CC[P+](CC)(CC)COCCOC.O=S(=O)([N-]S(=O)(=O)C(F)(F)F)C(F)(F)F
viscosity [mPa·s]
Conditions	278.15 K	283.15 K	288.15 K	293.15 K	298.15 K	303.15 K	308.15 K	313.15 K	318.15 K	323.15 K
x1 = 0.1	103	79	62	49	–	–	–	–	–	–
x1 = 0.25	160	120	91	72	57	–	–	–	–	–
x1 = 0.499	334	239	174	131	101	79	64	52	–	–
x1 = 0.75	716	486	337	241	178	135	104	82	66	55
x1 = 0.9	1198	788	531	370	265	195	149	115	91	73

CCCCCCC[P+](CC)(CC)CC.O=[N+]([O-])c1cn[n-]c1 [triethylheptylphosphonium 4-nitropyrazolide] + CC[P+](CC)(CC)COCCOC.O=S(=O)([N-]S(=O)(=O)C(F)(F)F)C(F)(F)F
viscosity [mPa·s]
Conditions	278.15 K	283.15 K	288.15 K	293.15 K	298.15 K	303.15 K	308.15 K	313.15 K	318.15 K	323.15 K
x1 = 0.101	103	80	62	50	–	–	–	–	–	–
x1 = 0.248	135	101	78	61	50	–	–	–	–	–
x1 = 0.5	234	170	126	96	75	59	–	–	–	–
x1 = 0.75	474	328	231	168	126	97	76	61	50	–
x1 = 0.901	761	510	350	249	182	137	105	84	66	54
